The supplement of paper PMC10307832

Key:
Experiment in all cases: relative viability (nuclei count vs DMSO), 5 days (fraction); higher = more cells survive
[1] = compound: CN(C)C(=N)NC(=N)N [Metformin] + CC(=O)c1c(C)c2cnc(Nc3ccc(N4CCNCC4)cn3)nc2n(C2CCCC2)c1=O [Palbociclib] (partner 0.5 µM)
Method in brief: (§1)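 Lung cancer cell lines were seeded in 1536-well plates and dosed by pin tool the next day, with either a single drug or a fixed anchor-drug dose combined with five library-drug doses (not always all listed) spaced in √10 steps. Five days later, one step fixed the cells and stained their nuclei (final 0.05% Triton X-100, 1% formaldehyde, 1 ug/ml Hoechst), and nuclei were counted on 4× images. Relative viability is the nuclei count in treated wells divided by the count in vehicle wells, and each value is the median of duplicate plates.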

[2] = compound: N#CC1(c2ccc(NC(=O)c3cccnc3NCc3ccncc3)cc2)CCCC1 [Apatinib] + Nc1nc2[nH]cc(CCc3ccc(C(=O)N[C@@H](CCC(=O)O)C(=O)O)cc3)c2c(=O)[nH]1 [Pemetrexed] (partner 0.2 µM)
Method in brief: as §1

[3] = compound: N#CC1(c2ccc(NC(=O)c3cccnc3NCc3ccncc3)cc2)CCCC1 [Apatinib] + CS(=O)(=O)N1CCN(Cc2cc3nc(-c4cccc5[nH]ncc45)nc(N4CCOCC4)c3s2)CC1 [Pictilisib] (partner 1 µM)
Method in brief: as §1

[4] = compound: CN(C)C(=N)NC(=N)N [Metformin] + Cc1nc(NC(=O)N2CCC[C@H]2C(N)=O)sc1-c1ccnc(C(C)(C)C(F)(F)F)c1 [Alpelisib] (partner 2 µM)
Method in brief: as §1

| Cell Line | relative viability ([1]; first compound 10 µM) | relative viability ([1]; first compound 31.62 µM) | relative viability ([1]; first compound 100 µM) | relative viability ([1]; first compound 316.23 µM) | relative viability ([1]; first compound 1000 µM) | relative viability ([2]; first compound 0.08 µM) | relative viability ([2]; first compound 0.253 µM) | relative viability ([2]; first compound 0.8 µM) | relative viability ([2]; first compound 2.53 µM) | relative viability ([2]; first compound 8 µM) | relative viability ([3]; first compound 0.08 µM) | relative viability ([3]; first compound 0.253 µM) | relative viability ([3]; first compound 0.8 µM) | relative viability ([3]; first compound 2.53 µM) | relative viability ([3]; first compound 8 µM) | relative viability ([4]; first compound 10 µM) | relative viability ([4]; first compound 31.62 µM) | relative viability ([4]; first compound 100 µM) | relative viability ([4]; first compound 316.23 µM) | relative viability ([4]; first compound 1000 µM) |
| --- | --- | --- | --- | --- | --- | --- | --- | --- | --- | --- | --- | --- | --- | --- | --- | --- | --- | --- | --- | --- |
| A-427 | 0.501 | 0.546 | 0.516 | 0.53 | 0.389 | 0.993 | 0.903 | 0.974 | 0.896 | 0.932 | 0.925 | 0.679 | 0.715 | 0.611 | 0.592 | 1.07 | 1.14 | 1.02 | 1.05 | 1.03 |
| SK-LU-1 | 0.358 | 0.388 | 0.365 | 0.358 | 0.367 | 1.09 | 0.995 | 0.918 | 0.544 | 0.32 | 0.786 | 0.637 | 0.564 | 0.557 | 0.453 | 0.916 | 0.934 | 0.829 | 0.948 | 1.07 |
| NCI-H2405 |  | 0.498 | 0.485 | 0.487 | 0.344 | 1.15 | 1.1 | 1.08 | 0.898 | 0.867 | 0.343 | 0.458 | 0.439 | 0.402 | 0.35 | 0.873 | 0.971 | 0.852 | 0.453 | 0.373 |
| LK-2 | 0.86 | 0.837 | 0.706 | 0.718 | 0.877 | 0.255 | 0.243 | 0.255 | 0.181 | 0.134 | 0.532 | 0.511 | 0.484 | 0.326 | 0.428 | 1.56 | 1.53 | 1.63 | 1.36 | 1.32 |
| LOU-NH91 | 0.524 | 0.523 | 0.441 | 0.518 | 0.517 | 0.418 | 0.396 | 0.424 | 0.336 | 0.303 | 0.516 | 0.56 | 0.499 | 0.466 | 0.522 | 0.762 | 0.709 | 0.806 | 0.634 | 0.642 |
| COR-L 105 | 0.419 | 0.44 | 0.464 | 0.433 | 0.441 | 1.27 | 1.21 | 1.04 | 0.895 | 1.05 | 0.512 | 0.471 | 0.33 | 0.438 | 0.354 | 1.14 | 1.33 | 1.07 | 0.963 | 0.802 |
| H3255 | 0.309 | 0.35 | 0.307 | 0.309 | 0.321 | 0.521 | 0.545 | 0.537 | 0.518 | 0.533 | 0.448 | 0.454 | 0.388 | 0.436 | 0.447 | 0.697 | 0.783 | 0.712 | 0.339 | 0.486 |
| NCI-H2228 | 0.626 | 0.782 | 0.747 | 0.526 | 0.946 | 0.324 | 0.312 | 0.356 | 0.208 | 0.192 | 0.338 | 0.417 | 0.451 | 0.355 | 0.539 | 0.917 | 0.85 |  | 0.542 | 0.898 |
